# Source: ChEMBL document CHEMBL3797052 (Eur J Med Chem, 2016)
# Key:
# [1] = test system: HT-29; assay: Antiproliferative activity against human HT-29 cells assessed as growth inhibition after 48 hrs by sulforhodamine B assay; format: functional; details: HT-29, 48 h
# [2] = Antiproliferative activity against human PC3 cells assessed as cell growth at 10^-6 M after 48 hrs by sulforhodamine B assay; format: functional; details: PC-3, 48 h, read-out: Activity
# [3] = Antiproliferative activity against human HL-60(TB) cells assessed as cell growth at 10^-6 M after 48 hrs by sulforhodamine B assay; format: functional; details: HL-60, 48 h, read-out: Activity
# [4] = Antiproliferative activity against human COLO205 cells assessed as growth inhibition after 48 hrs by sulforhodamine B assay; format: functional; details: COLO 205, 48 h; for CC50: read-out: LC50 (the source's name)
# [5] = test system: NCI-H23; assay: Antiproliferative activity against human NCI-H23 cells assessed as growth inhibition after 48 hrs by sulforhodamine B assay; format: functional; details: NCI-H23, 48 h
# [6] = test system: KM12; assay: Antiproliferative activity against human KM12 cells assessed as cell growth at 10^-8 M after 48 hrs by sulforhodamine B assay; format: functional; details: KM12, 48 h, read-out: Activity
# [7] = test system: MDA-MB-231; assay: Antiproliferative activity against human MDA-MB-231 cells assessed as cell growth at 10^-4 M after 48 hrs by sulforhodamine B assay; format: functional; details: MDA-MB-231, 48 h, read-out: Activity
# [8] = Antiproliferative activity against human HCT15 cells assessed as growth inhibition after 48 hrs by sulforhodamine B assay; format: functional; details: HCT-15, 48 h
# [9] = test system: Malme-3M; assay: Antiproliferative activity against human MALME-3M cells assessed as cell growth at 10^-4 M after 48 hrs by sulforhodamine B assay; format: functional; details: read-out: Activity
# [10] = Antiproliferative activity against human DU145 cells assessed as growth inhibition after 48 hrs by sulforhodamine B assay; format: functional; details: DU-145, 48 h; for CC50: read-out: LC50 (the source's name)
# [11] = test system: NCI-H226; assay: Antiproliferative activity against human NCI-H226 cells assessed as cell growth at 10^-8 M after 48 hrs by sulforhodamine B assay; format: functional; details: NCI-H226, 48 h, read-out: Activity
# [12] = test system: A549; assay: Antiproliferative activity against human A549/ATCC cells assessed as cell growth at […] after 48 hrs by sulforhodamine B assay; format: functional; details: A549, 48 h, read-out: Activity
# [13] = Antiproliferative activity against human DU145 cells assessed as cell growth at 10^-6 M after 48 hrs by sulforhodamine B assay; format: functional; details: DU-145, 48 h, read-out: Activity
# [14] = Antiproliferative activity against human UO31 cells assessed as cell growth at 10^-8 M after 48 hrs by sulforhodamine B assay; format: functional; details: UO-31, 48 h, read-out: Activity
# [15] = test system: SR; assay: Antiproliferative activity against human SR cells assessed as growth inhibition after 48 hrs by sulforhodamine B assay; format: functional
# [16] = test system: MDA-MB-468; assay: Antiproliferative activity against human MDA-MB-468 cells assessed as cell growth at […] after 48 hrs by sulforhodamine B assay; format: functional; details: MDA-MB-468, 48 h, read-out: Activity
# [17] = Antiproliferative activity against human BT549 cells assessed as cell growth at 10^-7 M after 48 hrs by sulforhodamine B assay; format: functional; details: BT-549, 48 h, read-out: Activity
# [18] = test system: K562; assay: Antiproliferative activity against human K562 cells assessed as cell growth at 10^-4 M after 48 hrs by sulforhodamine B assay; format: functional; details: K562, 48 h, read-out: Activity
# [19] = test system: MDA-MB-231; assay: Antiproliferative activity against human MDA-MB-231 cells assessed as cell growth at 10^-6 M after 48 hrs by sulforhodamine B assay; format: functional; details: MDA-MB-231, 48 h, read-out: Activity
# [20] = Antiproliferative activity against human SF295 cells assessed as cell growth at 10^-7 M after 48 hrs by sulforhodamine B assay; format: functional; details: SF-295, 48 h, read-out: Activity
# [21] = Antiproliferative activity against human LOXIMVI cells assessed as cell growth at 10^-7 M after 48 hrs by sulforhodamine B assay; format: functional; details: LOX IMVI, read-out: Activity
# [22] = Antiproliferative activity against human HL-60(TB) cells assessed as cell growth at 10^-4 M after 48 hrs by sulforhodamine B assay; format: functional; details: HL-60, 48 h, read-out: Activity
# [23] = Antiproliferative activity against human OVCAR3 cells assessed as cell growth at 10^-6 M after 48 hrs by sulforhodamine B assay; format: functional; details: OVCAR-3, 48 h, read-out: Activity
# [24] = Antiproliferative activity against human OVCAR3 cells assessed as cell growth at 10^-7 M after 48 hrs by sulforhodamine B assay; format: functional; details: OVCAR-3, 48 h, read-out: Activity
# [25] = target: CYP2C9 (Homo sapiens, UniProt P11712); assay: Inhibition of recombinant human CYP2C9 assessed as remaining enzyme activity using CYP2C9 green as substrate at 10 uM after 5 mins in presence of NADP by fluorescence plate reader analysis; format: ADME; details: recombinant human CYP2C9, probe CYP2C9 green, read-out: Activity
# [26] = Antiproliferative activity against human NCI-ADR-RES cells assessed as growth inhibition after 48 hrs by sulforhodamine B assay; format: functional
# [27] = test system: SK-MEL-28; assay: Antiproliferative activity against human SK-MEL-28 cells assessed as cell growth at 10^-6 M after 48 hrs by sulforhodamine B assay; format: functional; details: SK-MEL-28, 48 h, read-out: Activity
# [28] = test system: U-251; assay: Antiproliferative activity against human U251 cells assessed as cell growth at 10^-8 M after 48 hrs by sulforhodamine B assay; format: functional; details: U-251, 48 h, read-out: Activity
# [29] = Antiproliferative activity against human BT549 cells assessed as cell growth at 10^-6 M after 48 hrs by sulforhodamine B assay; format: functional; details: BT-549, 48 h, read-out: Activity
# [30] = Antiproliferative activity against human TK10 cells assessed as growth inhibition after 48 hrs by sulforhodamine B assay; format: functional; details: TK-10, 48 h; for CC50: read-out: LC50 (the source's name)
# [31] = Antiproliferative activity against human TK10 cells assessed as cell growth at 10^-8 M after 48 hrs by sulforhodamine B assay; format: functional; details: TK-10, 48 h, read-out: Activity
# [32] = test system: EKVX; assay: Antiproliferative activity against human EKVX cells assessed as growth inhibition after 48 hrs by sulforhodamine B assay; format: functional; details: for CC50: read-out: LC50 (the source's name)
# [33] = Antiproliferative activity against human HOP62 cells assessed as cell growth at 10^-7 M after 48 hrs by sulforhodamine B assay; format: functional; details: HOP-62, 48 h, read-out: Activity
# [34] = Antiproliferative activity against human NCI-ADR-RES cells assessed as cell growth at 10^-4 M after 48 hrs by sulforhodamine B assay; format: functional; details: read-out: Activity
# [35] = Antiproliferative activity against human IGROV1 cells assessed as cell growth at 10^-7 M after 48 hrs by sulforhodamine B assay; format: functional; details: IGROV-1, 48 h, read-out: Activity
# Sequence of CYP2C9 (P11712 whole entry): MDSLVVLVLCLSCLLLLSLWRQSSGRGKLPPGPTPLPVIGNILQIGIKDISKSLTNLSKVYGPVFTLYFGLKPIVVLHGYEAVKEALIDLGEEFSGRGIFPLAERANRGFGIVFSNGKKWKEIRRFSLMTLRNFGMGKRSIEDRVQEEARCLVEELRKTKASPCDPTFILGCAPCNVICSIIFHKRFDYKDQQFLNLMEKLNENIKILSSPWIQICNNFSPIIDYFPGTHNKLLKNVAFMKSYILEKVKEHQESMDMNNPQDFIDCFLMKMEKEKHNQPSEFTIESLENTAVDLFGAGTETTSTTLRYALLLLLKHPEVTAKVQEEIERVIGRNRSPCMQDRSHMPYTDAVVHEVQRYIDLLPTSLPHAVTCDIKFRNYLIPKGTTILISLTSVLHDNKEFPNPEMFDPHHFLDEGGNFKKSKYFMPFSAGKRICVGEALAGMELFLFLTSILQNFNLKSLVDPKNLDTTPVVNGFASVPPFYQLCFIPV
smiles,measurement,setting,value
CNC(=O)c1cc(Oc2ccc3nc(NC(=O)Nc4ccc(Cl)c(C(F)(F)F)c4)sc3c2)ccn1,LC50,[1],> 100 µM
same,TGI,[1],> 100 µM
same,growth at 1 µM,[2],71%
same,growth at 1 µM,[3],96%
same,CC50,[4],> 100 µM
same,GI50,[5],2.48 µM
same,LC50,[5],> 100 µM
same,TGI,[5],8.17 µM
same,growth at 0.01 µM,[6],103%
same,growth at 100 µM,[7],-53%
same,GI50,[8],1.95 µM
same,LC50,[8],> 100 µM
same,growth at 100 µM,[9],-48%
same,GI50,[10],2.24 µM
same,CC50,[10],> 100 µM
same,growth at 0.01 µM,[11],93%
same,growth at 0.1 µM,[12],105%
same,growth at 1 µM,[13],82%
same,growth at 0.01 µM,[14],100%
same,GI50,[15],0.412 µM
same,LC50,[15],> 100 µM
same,TGI,[15],9.1 µM
same,growth at 0.01 µM,[16],86%
same,growth at 0.1 µM,[17],100%
same,growth at 100 µM,[18],59%
same,growth at 1 µM,[19],66%
same,growth at 0.1 µM,[20],88%
same,growth at 0.1 µM,[21],102%
same,growth at 100 µM,[22],59%
same,growth at 1 µM,[23],108%
same,growth at 0.1 µM,[24],111%
same,"activity at 5 min, 10 µM",[25],98.5%
same,GI50,[26],2.43 µM
same,LC50 (concentration killing 50% of cells),[26],> 100 µM
same,growth at 1 µM,[27],78%
same,growth at 0.01 µM,[28],102%
same,growth at 1 µM,[29],87%
same,GI50,[30],2.29 µM
same,TGI,[30],4.62 µM
same,CC50,[30],9.32 µM
same,growth at 0.01 µM,[31],104%
same,GI50,[32],1.75 µM
same,TGI,[32],4.18 µM
same,growth at 0.1 µM,[33],95%
same,growth at 100 µM,[34],11%
same,growth at 0.1 µM,[35],97%
CNC(=O)c1cc(Oc2ccc(NC(=O)Nc3ccc(Cl)c(C(F)(F)F)c3)cc2)ccn1 [SORAFENIB],GI50,[1],2 µM
same,TGI,[1],7.94 µM
same,GI50,[4],2 µM
same,TGI,[4],7.94 µM
same,CC50,[4],31.6 µM
same,GI50,[5],2 µM
same,TGI,[5],5.01 µM
same,GI50,[8],2.51 µM
same,TGI,[8],12.6 µM
same,GI50,[10],3.16 µM
same,TGI,[10],10 µM
same,CC50,[10],50.1 µM
same,GI50,[15],3.16 µM
same,TGI,[15],100 µM
same,GI50,[26],2.51 µM
same,TGI,[26],7.94 µM
same,GI50,[30],3.98 µM
same,TGI,[30],10 µM
same,CC50,[30],50.1 µM
same,GI50,[32],2.51 µM
same,TGI,[32],7.94 µM
same,CC50,[32],63.1 µM
CNC(=O)c1cc(Oc2ccc3nc(NC(=O)Nc4cc(C(F)(F)F)cc(C(F)(F)F)c4)sc3c2)ccn1,GI50,[1],1.21 µM
same,LC50,[1],6.17 µM
same,TGI,[1],2.73 µM
same,growth at 1 µM,[2],37%
same,growth at 1 µM,[3],75%
same,GI50,[4],0.822 µM
same,TGI,[4],2.32 µM
same,CC50,[4],5.82 µM
same,GI50,[5],0.573 µM
same,LC50,[5],7.99 µM
same,TGI,[5],2.38 µM
same,growth at 0.01 µM,[6],100%
same,growth at 100 µM,[7],-59%
same,GI50,[8],1.5 µM
same,LC50,[8],7.32 µM
same,TGI,[8],3.31 µM
same,growth at 100 µM,[9],-76%
same,GI50,[10],1.25 µM
same,TGI,[10],2.98 µM
same,CC50,[10],7.14 µM
same,growth at 0.01 µM,[11],84%
same,growth at 0.1 µM,[12],109%
same,growth at 1 µM,[13],63%
same,growth at 0.01 µM,[14],95%
same,GI50,[15],0.514 µM
same,LC50,[15],31.6 µM
same,TGI,[15],2.6 µM
same,growth at 0.01 µM,[16],84%
same,growth at 0.1 µM,[17],96%
same,growth at 100 µM,[18],-35%
same,growth at 1 µM,[19],46%
same,growth at 0.1 µM,[20],92%
same,growth at 0.1 µM,[21],93%
same,growth at 100 µM,[22],-59%
same,growth at 1 µM,[23],52%
same,growth at 0.1 µM,[24],97%
same,"activity at 5 min, 10 µM",[25],88.2%
same,GI50,[26],1.27 µM
same,TGI,[26],3.19 µM
same,growth at 1 µM,[27],66%
same,growth at 0.01 µM,[28],103%
same,growth at 1 µM,[29],67%
same,GI50,[30],1.67 µM
same,TGI,[30],3.35 µM
same,CC50,[30],6.72 µM
same,growth at 0.01 µM,[31],95%
same,GI50,[32],1.29 µM
same,TGI,[32],4.56 µM
same,CC50,[32],59.3 µM
same,growth at 0.1 µM,[33],91%
same,growth at 100 µM,[34],-49%
same,growth at 0.1 µM,[35],89%
